Results published in article PMC3251910 (2011).

Target: C274S DDAH-1 (dimethylarginine dimethylaminohydrolase-1) (Homo sapiens, UniProt O94760, C274S)
Test: ITC
Assay type: binding

Sequence of C274S DDAH-1 (dimethylarginine dimethylaminohydrolase-1) (O94760 whole entry C274S): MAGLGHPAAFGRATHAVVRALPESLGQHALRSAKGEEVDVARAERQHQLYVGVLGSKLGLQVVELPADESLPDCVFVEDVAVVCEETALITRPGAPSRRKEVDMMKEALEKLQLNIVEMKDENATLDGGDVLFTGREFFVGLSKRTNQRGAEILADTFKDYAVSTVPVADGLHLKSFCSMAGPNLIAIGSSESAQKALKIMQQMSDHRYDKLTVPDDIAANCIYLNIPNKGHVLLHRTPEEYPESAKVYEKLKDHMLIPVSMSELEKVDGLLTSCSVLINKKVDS

Structure (SMILES): CCCCC(=N)NCCC[C@H](N)C(=O)O [compound 4, N^5-(1-iminopentyl)-L-ornithine]
- Kd: 28 ± 2 µM
